Laboratory results: ChEMBL document CHEMBL1201862, “PubChem BioAssay data set” (2004)
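Test compounds were applied to cells in 96-well plates for 48 hours at 5 doses. GI50: concentration for 50% inhibition of growth.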 The source made the active and inactive calls. Rule as the data show it: active = GI50 up to about 1.1 µM and inactive = higher.

Experiments:
Test in all cases: inhibition of tumour cell growth, NCI panel, 48 h
[1] = system: UACC-62
[2] = system: CCRF-CEM
[3] = system: A549
[4] = system: COLO 205
[5] = system: M14
[6] = system: A498
[7] = system: Malme-3M
[8] = system: MDA-N
[9] = system: RPMI-8226
[10] = system: NCI-H23
[11] = system: UACC-257
[12] = system: SNB-19
[13] = system: SF-539
[14] = system: SF-268
[15] = system: Hs-578T
[16] = system: UO-31
[17] = system: SK-MEL-2
[18] = system: PC-3
[19] = system: HT-29
[20] = system: SK-OV-3
[21] = system: EKVX
[22] = system: U-251
[23] = system: SNB-75
[24] = system: SW-620
[25] = system: SK-MEL-28
[26] = system: HL-60
[27] = system: SR
[28] = system: T47D
[29] = system: K562
[30] = system: HCC 2998
[31] = system: KM12
[32] = system: HCT-116
[33] = system: IGROV-1
[34] = system: HOP-92
[35] = system: OVCAR-5
[36] = system: OVCAR-3
[37] = system: TK-10
[38] = system: NCI-H226
[39] = system: OVCAR-8
[40] = system: HOP-62
[41] = system: OVCAR-4
[42] = system: CAKI-1
[43] = system: ACHN
[44] = system: NCI-H460
[45] = system: MCF7
[46] = system: LOX IMVI
[47] = system: NCI-H522
[48] = system: 786-0
[49] = system: SK-MEL-5
[50] = system: MOLT-4
[51] = system: HCT-15
[52] = system: MDA-MB-435
[53] = system: DU-145
[54] = system: RXF 393
[55] = system: SN12C
[56] = system: NCI/ADR-RES
[57] = system: MDA-MB-231

O=C1Nc2ccccc2C1Cc1ccccc1 (stereo not drawn)
GI50 [1]: > 100 µM (inactive) | GI50 [2]: > 100 µM (inactive) | GI50 [3]: > 100 µM (inactive) | GI50 [4]: > 100 µM (inactive) | GI50 [5]: > 100 µM (inactive) | GI50 [6]: > 100 µM (inactive) | GI50 [7]: > 100 µM (inactive) | GI50 [8]: > 100 µM (inactive) | GI50 [9]: > 100 µM (inactive) | GI50 [10]: > 100 µM (inactive) | GI50 [11]: > 100 µM (inactive) | GI50 [12]: > 100 µM (inactive) | GI50 [13]: > 100 µM (inactive) | GI50 [14]: > 100 µM (inactive) | GI50 [15]: > 100 µM (inactive) | GI50 [16]: 78.5 µM (inactive) | GI50 [17]: > 100 µM (inactive) | GI50 [18]: > 100 µM (inactive) | GI50 [19]: > 100 µM (inactive) | GI50 [20]: > 100 µM (inactive) | GI50 [21]: 56.1 µM (inactive) | GI50 [22]: > 100 µM (inactive) | GI50 [23]: 0.296 µM (active) | GI50 [24]: > 100 µM (inactive) | GI50 [25]: > 100 µM (inactive) | GI50 [26]: > 100 µM (inactive) | GI50 [27]: > 100 µM (inactive) | GI50 [28]: 88.7 µM (inactive) | GI50 [29]: > 100 µM (inactive) | GI50 [30]: > 100 µM (inactive) | GI50 [31]: > 100 µM (inactive) | GI50 [32]: > 100 µM (inactive) | GI50 [33]: > 100 µM (inactive) | GI50 [34]: > 100 µM (inactive) | GI50 [35]: > 100 µM (inactive) | GI50 [36]: > 100 µM (inactive) | GI50 [37]: > 100 µM (inactive) | GI50 [38]: > 100 µM (inactive) | GI50 [39]: > 100 µM (inactive) | GI50 [40]: > 100 µM (inactive) | GI50 [41]: > 100 µM (inactive) | GI50 [42]: > 100 µM (inactive) | GI50 [43]: > 100 µM (inactive) | GI50 [44]: > 100 µM (inactive) | GI50 [45]: > 100 µM (inactive) | GI50 [46]: > 100 µM (inactive) | GI50 [47]: > 100 µM (inactive) | GI50 [48]: > 100 µM (inactive) | GI50 [49]: 43.6 µM (inactive) | GI50 [50]: > 100 µM (inactive) | GI50 [51]: > 100 µM | GI50 [52]: > 100 µM (inactive) | GI50 [53]: > 100 µM (inactive)

CN(C)CCSC1=Nc2ccc(Cl)cc2C(c2ccccc2Cl)=NC1
GI50 [15]: 18.6 µM (inactive) | GI50 [23]: 18.2 µM (inactive) | GI50 [26]: 19.3 µM (inactive) | GI50 [29]: 20.5 µM (inactive) | GI50 [50]: 33.3 µM (inactive) | GI50 [52]: 13.8 µM (inactive)

Cc1nnc2sc(Cc3cnc(N)s3)nn12
GI50 [1]: > 100 µM (inactive) | GI50 [2]: > 100 µM (inactive) | GI50 [3]: > 100 µM (inactive) | GI50 [4]: > 100 µM (inactive) | GI50 [5]: > 100 µM (inactive) | GI50 [7]: > 100 µM (inactive) | GI50 [54]: > 100 µM (inactive) | GI50 [9]: > 100 µM (inactive) | GI50 [10]: > 100 µM (inactive) | GI50 [11]: > 100 µM (inactive) | GI50 [12]: > 100 µM (inactive) | GI50 [13]: > 100 µM (inactive) | GI50 [14]: > 100 µM (inactive) | GI50 [15]: > 100 µM (inactive) | GI50 [16]: > 100 µM (inactive) | GI50 [17]: > 100 µM (inactive) | GI50 [55]: > 100 µM (inactive) | GI50 [56]: > 100 µM (inactive) | GI50 [18]: > 100 µM (inactive) | GI50 [19]: > 100 µM (inactive) | GI50 [20]: > 100 µM (inactive) | GI50 [21]: > 100 µM (inactive) | GI50 [22]: > 100 µM (inactive) | GI50 [23]: > 100 µM (inactive) | GI50 [24]: > 100 µM (inactive) | GI50 [25]: > 100 µM (inactive) | GI50 [26]: > 100 µM (inactive) | GI50 [27]: > 100 µM (inactive) | GI50 [28]: > 100 µM (inactive) | GI50 [29]: > 100 µM (inactive) | GI50 [30]: > 100 µM (inactive) | GI50 [31]: > 100 µM (inactive) | GI50 [32]: > 100 µM (inactive) | GI50 [33]: 91.4 µM (inactive) | GI50 [34]: > 100 µM (inactive) | GI50 [35]: > 100 µM (inactive) | GI50 [37]: > 100 µM (inactive) | GI50 [38]: 77.6 µM (inactive) | GI50 [39]: > 100 µM (inactive) | GI50 [40]: > 100 µM (inactive) | GI50 [41]: > 100 µM (inactive) | GI50 [43]: > 100 µM (inactive) | GI50 [44]: > 100 µM (inactive) | GI50 [45]: > 100 µM (inactive) | GI50 [47]: > 100 µM (inactive) | GI50 [48]: > 100 µM (inactive) | GI50 [49]: > 100 µM (inactive) | GI50 [57]: > 100 µM (inactive) | GI50 [50]: > 100 µM (inactive) | GI50 [51]: > 100 µM | GI50 [53]: > 100 µM (inactive)

O=C1C=CC2(C=C1)CCNC1=C2C(=O)c2[nH]cnc2C1=O
GI50 [7]: 2.26 µM (inactive) | GI50 [12]: 13.9 µM (inactive) | GI50 [33]: 15.2 µM (inactive)
